Laboratory results as given in PubChem BioAssay AID1259407 (Chemical Carcinogenesis Research Information System (CCRIS), 2018).
Activity calls are given as the source filed them. No rule for the calls is given here.

Tested on: CCRIS mutagenicity, Ames/micronucleus/aberration tests
Experiment: CCRIS mutagenicity studies
[1] = Test System: AMES SALMONELLA TYPHIMURIUM, Strain/Indicator: TA98, Metabolic Activation: NONE, Method: STANDARD PLATE
[2] = Test System: AMES SALMONELLA TYPHIMURIUM, Strain/Indicator: TA98, Metabolic Activation: RAT, LIVER, S-9, AROCLOR 1254, Method: STANDARD PLATE
[3] = Test System: AMES SALMONELLA TYPHIMURIUM, Strain/Indicator: TA97, Metabolic Activation: NONE, Method: STANDARD PLATE
[4] = Test System: AMES SALMONELLA TYPHIMURIUM, Strain/Indicator: TA97, Metabolic Activation: RAT, LIVER, S-9, AROCLOR 1254, Method: STANDARD PLATE
[5] = Test System: AMES SALMONELLA TYPHIMURIUM, Strain/Indicator: TA100, Metabolic Activation: NONE, Method: STANDARD PLATE
[6] = Test System: AMES SALMONELLA TYPHIMURIUM, Strain/Indicator: TA100, Metabolic Activation: RAT, LIVER, S-9, AROCLOR 1254, Method: STANDARD PLATE
[7] = Test System: AMES SALMONELLA TYPHIMURIUM, Strain/Indicator: TA104, Metabolic Activation: NONE, Method: STANDARD PLATE
[8] = Test System: AMES SALMONELLA TYPHIMURIUM, Strain/Indicator: TA104, Metabolic Activation: RAT, LIVER, S-9, AROCLOR 1254, Method: STANDARD PLATE
[9] = Test System: AMES SALMONELLA TYPHIMURIUM, Strain/Indicator: TA98, Metabolic Activation: NONE, Method: PREINCUBATION
[10] = Test System: AMES SALMONELLA TYPHIMURIUM, Strain/Indicator: TA98, Metabolic Activation: RAT, LIVER, S-9, AROCLOR 1254, Method: PREINCUBATION
[11] = Test System: AMES SALMONELLA TYPHIMURIUM, Strain/Indicator: TA100, Metabolic Activation: NONE, Method: PREINCUBATION
[12] = Test System: AMES SALMONELLA TYPHIMURIUM, Strain/Indicator: TA100, Metabolic Activation: RAT, LIVER, S-9, AROCLOR 1254, Method: PREINCUBATION
[13] = Test System: AMES SALMONELLA TYPHIMURIUM, Strain/Indicator: TA1535, Metabolic Activation: NONE, Method: PREINCUBATION
[14] = Test System: AMES SALMONELLA TYPHIMURIUM, Strain/Indicator: TA1535, Metabolic Activation: RAT, LIVER, S-9, AROCLOR 1254, Method: PREINCUBATION
[15] = Test System: AMES SALMONELLA TYPHIMURIUM, Strain/Indicator: TA1537, Metabolic Activation: NONE, Method: PREINCUBATION
[16] = Test System: AMES SALMONELLA TYPHIMURIUM, Strain/Indicator: TA1537, Metabolic Activation: RAT, LIVER, S-9, AROCLOR 1254, Method: PREINCUBATION

| Compound | mutagenic call [1] | mutagenic call [2] | mutagenic call [3] | mutagenic call [4] | mutagenic call [5] | mutagenic call [6] | mutagenic call [7] | mutagenic call [8] | mutagenic call [9] | mutagenic call [10] | mutagenic call [11] | mutagenic call [12] | mutagenic call [13] | mutagenic call [14] | mutagenic call [15] | mutagenic call [16] | other results |
| --- | --- | --- | --- | --- | --- | --- | --- | --- | --- | --- | --- | --- | --- | --- | --- | --- | --- |
| C1=Cc2c3ccc4ccccc4c3cc3cccc1c23 | inactive; negative | active; positive |  |  |  |  |  |  |  |  |  |  |  |  |  |  | mutagenic call (Test System: AMES SALMONELLA TYPHIMURIUM, Strain/Indicator: TA98, Metabolic Activation: HUMAN, LIVER, MICROSOMES, Method: STANDARD PLATE): active; positive; mutagenic call (Test System: AMES SALMONELLA TYPHIMURIUM, Strain/Indicator: TA98, Metabolic Activation: RAT, LIVER, HEPATOCYTES, Method: PREINCUBATION): active; positive; mutagenic call (Test System: AMES SALMONELLA TYPHIMURIUM, Strain/Indicator: TA98, Metabolic Activation: RAT, LIVER, MICROSOMES, AROCLOR 1254, Method: STANDARD PLATE): active; positive; mutagenic call (Test System: AMES SALMONELLA TYPHIMURIUM, Strain/Indicator: TA98, Metabolic Activation: RAT, LIVER, MICROSOMES, Method: STANDARD PLATE): active; positive; mutagenic call (Test System: AMES SALMONELLA TYPHIMURIUM, Strain/Indicator: TA98, Metabolic Activation: RAT, LIVER, S-9, AROCLOR 1254 (0.4, 0.8, 1.15 OR 1.5 MG/PLATE), Method: STANDARD PLATE): active; positive; mutagenic call (Test System: AMES SALMONELLA TYPHIMURIUM, Strain/Indicator: TA98, Metabolic Activation: RAT, LUNG, MICROSOMES, AROCLOR 1254, Method: STANDARD PLATE): active; positive; mutagenic call (Test System: AMES SALMONELLA TYPHIMURIUM, Strain/Indicator: TA98, Metabolic Activation: RAT, LUNG, MICROSOMES, Method: STANDARD PLATE): inactive; negative; mutagenic call (Test System: CHINESE HAMSTER OVARY, Strain/Indicator: V-79/6-THIOGUANINE, Metabolic Activation: RAT, LIVER, S-9, AROCLOR 1254, Method: FLASK ASSAY): active; positive; mutagenic call (Test System: CHINESE HAMSTER OVARY, Strain/Indicator: V-79/6-THIOGUANINE, Metabolic Activation: SHE CELL MEDIATED, Method: FLASK ASSAY): inactive; negative; mutagenic call (Test System: CHINESE HAMSTER V-79, Strain/Indicator: V-79/6-THIOGUANINE, Metabolic Activation: RAT, LIVER, S-9, AROCLOR 1254, Method: SUSPENSION/PLATE): active; positive; mutagenic call (Test System: UDS RAT HEPATOCYTES, Strain/Indicator: THY INCORP, Metabolic Activation: NONE, Method: LIQUID SCINTILLATION COUNTING): active; positive |
| C[N+]1(C)CCOCC1 | inactive; negative | inactive; negative | inactive; negative | inactive; negative | inactive; negative | inactive; negative | inactive; negative | inactive; negative |  |  |  |  |  |  |  |  | mutagenic call (Test System: AMES SALMONELLA TYPHIMURIUM, Strain/Indicator: TA102, Metabolic Activation: NONE, Method: STANDARD PLATE): inactive; negative; mutagenic call (Test System: AMES SALMONELLA TYPHIMURIUM, Strain/Indicator: TA102, Metabolic Activation: RAT, LIVER, S-9, AROCLOR 1254, Method: STANDARD PLATE): inactive; negative; mutagenic call (Test System: AMES SALMONELLA TYPHIMURIUM, Strain/Indicator: TA1535, Metabolic Activation: NONE, Method: STANDARD PLATE): inactive; negative; mutagenic call (Test System: AMES SALMONELLA TYPHIMURIUM, Strain/Indicator: TA1535, Metabolic Activation: RAT, LIVER, S-9, AROCLOR 1254, Method: STANDARD PLATE): inactive; negative; mutagenic call (Test System: AMES SALMONELLA TYPHIMURIUM, Strain/Indicator: TA1537, Metabolic Activation: NONE, Method: STANDARD PLATE): inactive; negative; mutagenic call (Test System: AMES SALMONELLA TYPHIMURIUM, Strain/Indicator: TA1537, Metabolic Activation: RAT, LIVER, S-9, AROCLOR 1254, Method: STANDARD PLATE): inactive; negative; mutagenic call (Test System: AMES SALMONELLA TYPHIMURIUM, Strain/Indicator: TA1538, Metabolic Activation: NONE, Method: STANDARD PLATE): inactive; negative; mutagenic call (Test System: AMES SALMONELLA TYPHIMURIUM, Strain/Indicator: TA1538, Metabolic Activation: RAT, LIVER, S-9, AROCLOR 1254, Method: STANDARD PLATE): inactive; negative |
| Cc1cc(=O)oc2cc(O)cc(O)c12 |  |  |  |  |  |  |  |  | inactive; negative | inactive; negative | inactive; negative | inactive; negative | inactive; negative | inactive; negative | inactive; negative | inactive; negative | mutagenic call (Test System: AMES SALMONELLA TYPHIMURIUM, Strain/Indicator: TA98, Metabolic Activation: HAMSTER, LIVER, S-9, AROCLOR 1254, Method: PREINCUBATION): inactive; negative; mutagenic call (Test System: AMES SALMONELLA TYPHIMURIUM, Strain/Indicator: TA100, Metabolic Activation: HAMSTER, LIVER, S-9, AROCLOR 1254, Method: PREINCUBATION): inactive; negative; mutagenic call (Test System: AMES SALMONELLA TYPHIMURIUM, Strain/Indicator: TA1535, Metabolic Activation: HAMSTER, LIVER, S-9, AROCLOR 1254, Method: PREINCUBATION): inactive; negative; mutagenic call (Test System: AMES SALMONELLA TYPHIMURIUM, Strain/Indicator: TA1537, Metabolic Activation: HAMSTER, LIVER, S-9, AROCLOR 1254, Method: PREINCUBATION): inactive; negative |
| O=c1[nH]c(=O)n([C@H]2C[C@H](O)[C@@H](CO)O2)cc1CCCCl |  |  |  |  |  |  |  |  | inactive; negative | inactive; negative | inactive; negative | inactive; negative | inactive; negative | inactive; negative | inactive; negative | inactive; negative | mutagenic call (Test System: AMES SALMONELLA TYPHIMURIUM, Strain/Indicator: TA97, Metabolic Activation: NONE, Method: PREINCUBATION): inactive; negative; mutagenic call (Test System: AMES SALMONELLA TYPHIMURIUM, Strain/Indicator: TA97, Metabolic Activation: RAT, LIVER, S-9, AROCLOR 1254, Method: PREINCUBATION): inactive; negative; mutagenic call (Test System: AMES SALMONELLA TYPHIMURIUM, Strain/Indicator: TA102, Metabolic Activation: NONE, Method: PREINCUBATION): inactive; negative; mutagenic call (Test System: AMES SALMONELLA TYPHIMURIUM, Strain/Indicator: TA102, Metabolic Activation: RAT, LIVER, S-9, AROCLOR 1254, Method: PREINCUBATION): inactive; negative; mutagenic call (Test System: AMES SALMONELLA TYPHIMURIUM, Strain/Indicator: TA104, Metabolic Activation: NONE, Method: PREINCUBATION): inactive; negative; mutagenic call (Test System: AMES SALMONELLA TYPHIMURIUM, Strain/Indicator: TA104, Metabolic Activation: RAT, LIVER, S-9, AROCLOR 1254, Method: PREINCUBATION): inactive; negative; mutagenic call (Test System: AMES SALMONELLA TYPHIMURIUM, Strain/Indicator: TA1538, Metabolic Activation: NONE, Method: PREINCUBATION): inactive; negative; mutagenic call (Test System: AMES SALMONELLA TYPHIMURIUM, Strain/Indicator: TA1538, Metabolic Activation: RAT, LIVER, S-9, AROCLOR 1254, Method: PREINCUBATION): inactive; negative; mutagenic call (Test System: CHINESE HAMSTER V-79, Strain/Indicator: V-79/8-AZAGUANINE, Metabolic Activation: NONE): inactive; negative |
| Br/C=C/Br | active; positive | active; positive | inactive; negative | active; positive | active; positive | active; positive | inactive; negative | active; positive |  |  |  |  |  |  |  |  |  |
